Results published in patent publication US20260234165A1, “MACROCYCLIC COMPOUNDS, PREPARATION METHOD THEREFOR, AND USE THEREOF” (GENFLEET THERAPEUTICS (SHANGHAI) INC., priority 2004, published 2026).
Counter-ions that a name gives are not always drawn. Like-named read-outs stand apart in the source and are kept apart here.

Assays:
Format in all cases: cell-based, human
[1] = test system: p-ERK in AsPC-1 cells (KRAS G12D mutation); test: Cell p-ERK assay (HTRF) in AsPC-1 cells; settings: AsPC-1 cells, 3 h compound incubation, HTRF p-ERK T202/Y204, read-out: AsPC-1 p-ERK IC50
Summary of the method: (§1)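 Seed 10000 AsPC-1 or 20000 NCI-H441 cells/well, overnight 37 °C/5% CO2. Cpd 3.16-fold series, 0.1% DMSO final, 3 h. Lyse 30 min, HTRF p-ERK (T202/Y204) Ab 4 h. IC50: 4-parameter fit of IR% normalised to DMSO and blank.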

[2] = test system: p-ERK in NCI-H441 cells (KRAS G12V mutation); test: Cell p-ERK assay (HTRF) in NCI-H441 cells; settings: NCI-H441 cells, 3 h compound incubation, HTRF p-ERK T202/Y204, read-out: H441 p-ERK IC50
Summary of the method: as §1

NCI-H441 cells = test: 3D cell proliferation assay (CellTiter Glo-3D), NCI-H441; settings: medium with 2% FBS, read-out: H441 AP IC50
Summary of the method: (§2)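 800 cells/well (NCI-H441, […]; AsPC-1, KRAS G12D), low-serum RPMI-1640 (2% FBS), overnight attach; 3.16-fold serial dilutions added, 0.1% DMSO; 5 d, 37 °C; CellTiter-Glo 3D RLU; IC50, 4-parameter fit.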

[3] = test system: AsPC-1 cells (KRAS G12D mutation); test: 3D cell proliferation assay (CellTiter Glo-3D), AsPC-1; settings: medium with 2% FBS, read-out: AsPC-1 AP IC50
Summary of the method: as §2

[4] = Homo sapiens, NCI-H441, 3D cell proliferation (CellTiter Glo-3D)
[5] = Homo sapiens, ASPC1, 3D cell proliferation (CellTiter Glo-3D)
[6] = 3D cell proliferation (CellTiter Glo-3D)

| Compound | IC50 ([1]; Homo sapiens, ASPC1, 3 h) | IC50 ([2]; Homo sapiens, NCI-H441, 3 h) | IC50 (NCI-H441 cells; [4]) | IC50 [3, 5] | IC50 [1] | IC50 [2] | IC50 (NCI-H441 cells; [6]) | IC50 [3, 6] |
| --- | --- | --- | --- | --- | --- | --- | --- | --- |
| CCn1c(-c2cc(N(C)CC3COCCN3C)cnc2[C@H](C)OC)c2c3cc(ccc31)-c1csc(n1)C[C@H](NC(=O)[C@H]1[C@H](C)[C@@H]1C)C(=O)N1CCC[C@H](N1)C(=O)OCC(C)(C)C2 (stereo partly drawn) [Compound Z76, (1r,2R,3S)—N-((6^3S,4S,Z)-1^1-ethyl-1^2-(2-((S)-1-methoxyethyl)-5-(methyl((4-methylmorpholin-3-yl)methyl)amino)pyridin-3-yl)-10,10-dimethyl-5,7-dioxo-6^1,6^2,6^3,6^4,6^5,6^6-hexahydro-11H-8-oxa-2(4,2)-thiazola-1(5,3)-indola-6(1,3)-pyridazinacycloundecaphane-4-yl)-2,3-dimethylcyclopropane-1-carboxamide] | 19.2 nM | 19 nM | 29.9 nM | 30.3 nM |  |  |  |  |
| CCn1c(-c2cc(N3CCN(C4(c5cccc(C)n5)CC4)CC3)cnc2[C@H](C)OC)c2c3cc(ccc31)-c1csc(n1)C[C@H](NC(=O)[C@H]1[C@H](C)[C@@H]1C)C(=O)N1CCC[C@H](N1)C(=O)OCC(C)(C)C2 [Compound Z81, (1r,2R,3S)—N-((6^3S,4S,Z)-1^1-ethyl-2-(2-((S)-1-methoxyethyl)-5-(4-(1-(6-methylpyridin-2-yl)cyclopropyl)piperazin-1-yl)pyridin-3-yl)-10-10-dimethyl-5,7-dioxo-6^1,6^2,6^3,6^4,6^5,6^6-hexahydro-1^1H-8-oxa-2(4,2)-thiazola-1(5,3)-indola-6(1,3)-pyridazinacycloundecaphane-4-yl)-2,3-dimethylcyclopropane-1-carboxamide formate] | 2.01 nM | 1.7 nM | 2.03 nM | 3.42 nM |  |  |  |  |
| CCn1c(-c2cc(OCCN3CCOC4(CC4)C3)cnc2[C@H](C)OC)c2c3cc(ccc31)-c1csc(n1)C[C@H](NC(=O)[C@H]1[C@H](C)[C@@H]1C)C(=O)N1CCC[C@H](N1)C(=O)OCC(C)(C)C2 [Compound Z83, (1r,2R,3S)—N-((6^3R,4R,Z)-1^2-(5-(2-(4-oxa-7-azaspiro[2,5]octan-7-yl)ethoxy)-2-((S)-1-methoxyethyl)pyridin-3-yl)-1′-ethyl-10,10-dimethyl-5,7-dioxo-6^1,6^2,6^3,6^4,6^5,6^6-hexahydro-1^1H-8-oxa-2(4,2)-thiazola-1(5,3)-indola-6(1,3)-pyridazinacycloundecaphane-4-yl)-2,3-dimethylcyclopropane-1-carboxamide] |  |  |  |  | 0.43 nM | 0.75 nM | 0.48 nM | 0.77 nM |
| CCn1c(-c2cc(OCC3(N4CCCOCC4)CC3)cnc2[C@H](C)OC)c2c3cc(ccc31)-c1csc(n1)C[C@H](NC(=O)[C@H]1[C@H](C)[C@@H]1C)C(=O)N1CCC[C@H](N1)C(=O)OCC1(CC1)C2 [Compound Z329, (1r,2R,3S)—N-((3′S,4′S,Z)-2′-(5-((1-(1,4-oxazepan-4-yl)cyclopropyl)methoxy)-2-((S)-1-methoxyethyl)pyridin-3-yl)-1′-ethyl-5′,7′-dioxospiro[cyclopropane-1,10′-8-oxa-2(4,2)-thiazola-1(5,3)-indola-6(1,3)-pyridazinacycloundecaphan]-4′-yl)-2,3-dimethylcyclopropane-1-carboxamide] |  |  |  |  | 15.7 nM | 8.74 nM | 23.1 nM | 51.9 nM |
| CCn1c(-c2cc(OCC3(N4CCC4)CC3)cnc2[C@H](C)OC)c2c3cc(ccc31)-c1csc(n1)C[C@H](NC(=O)[C@H]1[C@H](C)[C@@H]1C)C(=O)N1CCC[C@H](N1)C(=O)OCC1(CC1)C2 [Compound Z333] | 18.8 nM | 10.9 nM | 18.6 nM | 29.2 nM |  |  |  |  |
| CO[C@@H](C)c1ncc(OCCN2CCOC3(CC3)C2)cc1-c1c2c3cc(ccc3n1CC(F)(F)F)-c1csc(n1)C[C@H](NC(=O)[C@H]1[C@H](C)[C@@H]1C)C(=O)N1CCC[C@H](N1)C(=O)OCC1(CC1)C2 [Compound Z350, (1r,2R,3S)—N-((3′S,4′S,Z)-2′-(5-(2-(4-oxa-7-azaspiro[2.5]octan-7-yl)ethoxy)-2-((S)-1-methoxyethyl)pyridin-3-yl)-5′,7′-dioxo-1′-(2,2,2-trifluoroethyl)spiro[cyclopropane-1,10′-8-oxa-2(4,2)-thiazola-1(5,3)-indola-6(1,3)-pyridazinacycloundecaphan]-4-yl)-2,3-dimethylcyclopropane-1-carboxamide] | 16.3 nM |  |  |  |  | 9.1 nM | 19.7 nM | 53.4 nM |
| CCn1c(-c2cc(C#CCN3CCC3)cnc2[C@H](C)OC)c2c3cc(ccc31)-c1csc(n1)C[C@H](NC(=O)[C@H]1[C@H](C)[C@@H]1C)C(=O)N1CCC[C@H](N1)C(=O)OCC(C)(C)C2 [Compound Z361, (1r,2R,3S)—N-((6^3S,4S,Z)-1-(5-(3-(azetidin-1-yl)prop-1-yn-1-yl)-2-((S)-1-methoxyethyl)pyridin-3-yl)-1^1-ethyl-10,10-dimethyl-5,7-dioxo-6^1,6^2,6^3,6^4,6^5,6^6-hexahydro-1^1H-8-oxa-2(4,2)-thiazola-1(5,3)-indola-6(1,3)-pyridazinacycloundecaphane-4-yl)-2,3-dimethylcyclopropane-1-carboxamide formate] |  |  |  |  | 2.66 nM | 2.61 nM | 2.25 nM | 2.38 nM |
| CCn1c(-c2cc(C#CCN3CCOC4(CC4)C3)cnc2[C@H](C)OC)c2c3cc(ccc31)-c1csc(n1)C[C@H](NC(=O)[C@H]1[C@H](C)[C@@H]1C)C(=O)N1CCC[C@H](N1)C(=O)OCC(C)(C)C2 [Compound Z369-1, (1r,2R,3S)—N-((6^3S,4S,Z)-1^2-(5-(3-(4-oxa-7-azaspiro[2.5]octan-7-yl)prop-1-yn-1-yl)-2-((S)-1-methoxyethyl)pyridin-3-yl)-1^1-ethyl-10,10-dimethyl-5,7-dioxo-6^1,6^2,6^3,6^4,6^5,6^6-hexahydro-1^1H-8-oxa-2(4,2)-thiazola-1(5,3)-indola-6(1,3)-pyridazinacycloundecaphane-4-yl)-2,3-dimethylcyclopropane-1-carboxamide formate] | 0.12 nM | 0.16 nM | 0.21 nM | 0.14 nM |  |  |  |  |
| CCn1c(-c2cc(C3(N(C)C(=O)CN(C)C)CC3)cnc2[C@H](C)OC)c2c3cc(ccc31)-c1csc(n1)C[C@H](NC(=O)[C@H]1[C@H](C)[C@@H]1C)C(=O)N1CCC[C@H](N1)C(=O)OCC(C)(C)C2 [Compound Z372, (1r,2R,3S)—N-((6^3S,4S,Z)-1^2-(5-(1-(2-(dimethylamino)-N-methylacetamido)cyclopropyl)-2-((S)-1-methoxyethyl)pyridin-3-yl)-1^1-ethyl-10,10-dimethyl-5,7-dioxo-6^1,6^2,6^3,6^4,6^5,6^6-hexahydro-1^1H-8-oxa-2(4,2)-thiazola-1(5,3)-indola-6(1,3)-pyridazinacycloundecaphane-4-yl)-2,3-dimethylcyclopropane-1-carboxamide] | 31.4 nM | 14 nM | 6.8 nM | 15.3 nM |  |  |  |  |
| CCn1c(-c2cc(C#CCN3CC(F)(F)C3)cnc2[C@H](C)OC)c2c3cc(ccc31)-c1csc(n1)C[C@H](NC(=O)[C@H]1[C@H](C)[C@@H]1C)C(=O)N1CCC[C@H](N1)C(=O)OCC(C)(C)C2 [Compound Z390-1, (2R,3S)—N-((6^3S,4S,Z)-1^2-(5-(3-(3,3-difluoroazetidin-1-yl)prop-1-yn-1-yl)-2-((S)-1-methoxyethyl)pyridin-3-yl)-1^1-ethyl-10,10-dimethyl-5,7-dioxo-6^1,6^2,6^3,6^4,6^5,6^6-hexahydro-1^1H-8-oxa-2(4,2)-thiazola-1(5,3)-indola-6(1,3)-pyridazinacycloundecaphane-4-yl)-2,3-dimethylcyclopropane-1-carboxamide] | 0.34 nM | 0.4 nM | 0.48 nM | 0.54 nM |  |  |  |  |
